Assay results taken from article PMC5004205, “Spiro[pyrrolidine-3, 3´-oxindole] as potent anti-breast cancer compounds: Their design, synthesis, biological evaluation and cellular target identification” (Scientific Reports, 2016).
Entries after “also recorded” stand apart in the source; their conditions may differ.

Experiments:
[1] = system: MCF-7 cell lysate; assay: Chemical proteomics target deconvolution with polymer-immobilized 5l; format: binding, Human; settings: differential proteins common to three experiments, MS
Description: 5l was provided as a lyophilized powder. A 100 mM stock of 5l was made in DMSO. The stock solution was diluted to 215 μM in 1 mM of phosphate buffer in pH 6.0 and incubated with the matrix for 16 hrs at room temperature. After incubation, the matrix was washed five times with Phosphate buffer. The amount of molecule in the phosphate buffer wash was quantified by HPLC-UV based method and amount of molecule retained on the matrix was calculated.
Cell lysates were prepared in RIPA buffer and protein concentration was determined by Bradford method. Cell lysate was diluted with 1X TBS to a concentration of 1 mg/ml. The 5l immobilized matrix was incubated with 2 ml of cell lysate for 2 min with mild shaking. The matrix was washed with 1X TBS to remove unbound proteins and to reduce non-specific interactions. The molecule bound proteins were then recovered by acetone precipitation and was dissolved in 1X sample buffer. Proteins were separated on a 4–12% gradient gel and bands were digested by standard “in-gel” trypsin digestion methods. […]
Agilent Mass Hunter software was used for data acquisition and analysis of Total ion chromatograms. […] The peptide sequence was also analysed for variable modifications such as methionine oxidation, acetylation, cysteine sulfoxide, deamidation and pyro glutamic acid modification.

[2] = system: MCF-7 cells; assay: Cell migration (scratch) assay; format: cell-based; settings: 24 hours, compared to untreated cells
Description: MCF-7 cells were grown to confluence in six-well tissue culture plastic dishes to a density of ∼0.2 million cells/well. After 24 hrs of seeding, cells were treated with chemical compounds. The medium was removed and the cells were scratched by 200 μL pipette micro tip through the center of the plate. The cultures were washed to remove debris and re-cultured with DMEM containing 10% FBS for cell migration. The cells were imaged at 24 hrs and the migrated distance was measured. Migration rate was calculated by counting five to seven fields per image and the results presented as the average of three independent experiments performed over multiple days.

[3] = system: MCF10A cells; assay: MTT cytotoxicity assay, MCF10A; format: cell-based
Description: MCF10A was obtained from American Tissue Type Culture Collection (ATCC, Bethesda, MD). All cells were grown in a humidified atmosphere at 37 °C, with 5% CO2 in air.
The MTT colorimetric viability assay was performed to evaluate the anticancer effect of compounds. 30,000 cells/100 μl of media were seeded per well and allowed to stretch and adhere overnight at 37 °C. Following day media was removed and 100 μl fresh media was added to the grown cells. Adhered cells were then treated with the compounds 5a-m dissolved in DMSO in triplicates at a standard concentration of 50 μM for 48 hours. There was one positive and one negative control along with 13 compounds. The results were measured all in triplicate in 45 wells of 96 well plate at each time point. Cytotoxic effect was evaluated using ability of live cells to cleave MTT ((3-[4, 5- dimethylthiazol-2-yl]-2, 5-diphenyl tetrazolium bromide)) (Sigma-Aldrich, St Louis, MO, USA), into formazan crystals. Post 48 hours of treatment, 10 μl of MTT (5 mg/ml in PBS) was added to the cells and incubated for 4 hours in dark at 37 °C. The violet colored crystals formed were then dissolved in 100 μl DMSO solvent (Dimethyl Sulfoxide, Sigma-Aldrich, St. Louis, MO, USA). The colorimetric assay was read by a MultiMode Plate Reader (Bio-Rad) at 595 nm. Percentage of Inhibition of drug was calculated by following formula: […]
Cytotoxicity assay with MCF 10A
Experiment :MCF10A cytotoxicity assay 48 hours
Raw Data{Wavelength:595.0}
O.D1 O.D2 O.D3 AVG CTRL-TEST CTRL-TST/CTRL*100
(1 picture or pasted object on this page, not shown here)

[4] = system: MCF-7 cells; assay: Annexin V/propidium iodide FACS assay; format: cell-based
Description: The assay is based on the ability of the protein annexin V to bind to phosphatidylserine (PS) exposed on the outer membrane leaflet in apoptotic cells (PS also appears on the necrotic cell surface). The annexin V assay was performed following the manufacturer’s instructions (Annexin V-FITC kit,Alexa Fluor). Briefly, the cells were washed with PBS and suspended in pre-diluted binding buffer. The cell density was adjusted to 2 million and 195 μl of cell suspension were mixed with 5 μl Annexin V-FITC and incubated for 10 min in the dark at room temperature. The cells were washed with binding buffer, re-suspended in 195 μl binding buffer, counterstained with 10 μl of the 20 μg/ml propidium iodide stock (final concentration 1 μg/ml) and the data were acquired by BD FACS diva 7.0 at 6 h, 12 h and 24 h.

[5] = system: MCF-7 cells; assay: DNA fragmentation (DNA-ladder) assay; format: cell-based; settings: MCF-7, gel electrophoresis
Description: The DMSO (dimethyl sulphoxide)–SDS (sodium dodecyl sulphate)–TE (Tris-EDTA) method: 2 million MCF-7cells were taken as starting material for DNA isolation. Cells were dislodged with Trypsin-EDTA and washed with 1 X PBS. DMSO was added directly to the cell pellet (100 μl) and mixed well by pipetting. TE buffer (pH 7.4) with 2% SDS was added into the mixture with same volume, followed by pipetting. The solution was centrifuged at 3000 rpm at 4 °C and 30 μL of the supernatant was loaded on agarose gel to check the effect of drugs on DNA molecule.

Q: With `O=C1Nc2ccccc2C12CCNC2c1ccccc1` (stereo not shown) [Compound 5l] as the compound, how does the “Putative cellular binding targets” value [1] read?
A: HDAC2 and Prohibitin 2 are considered top priority targets

Q: And the “Inhibition of cell migration of MCF-7 cells” value [2]?
A: inhibit cell migration

Q: What about the “Effect on proliferation of healthy MCF10A cells” value [3] of the same compound?
A: did not inhibit the proliferation; also recorded: little or no effect

Q: And the “CTRL-TST/CTRL*100 MCF10A cytotoxicity” value ([3]; 48 hours, 595 nm)?
A: 0.08

Q: What about the “Percentage inhibition MCF10A” value ([3]; MTT, 48 hours) of the same compound?
A: 0.08%

Q: What about the “Mode of cell death by Annexin-PI FACS” value [4] of the same compound?
A: necrosis was also confirmed

Q: And the “DNA fragmentation pattern / mode of cell death” value [5]?
A: smearing of DNA fragments
